Measurements published in ChEMBL document CHEMBL1125985, “Tubulin binding of conformationally restricted bis-aryl compounds” (Bioorg Med Chem Lett, 1991).

Target: Tubulin (Bos taurus, UniProt Q6B856+Q862L2+Q862F3)
Experiment: In vitro inhibition of purified bovine brain tubulin polymerisation in the absence of microtubule-associated proteins.

SMILES | IC50 [M]
COc1ccc(Cc2cc(OC)c(OC)c(OC)c2)cc1O | 1.5e-06
COc1ccc(CC(OC(C)=O)c2cc(OC)c(OC)c(OC)c2)cc1O (stereo unspecified) | 5e-06
COc1cc2c(cc1O)CCc1cc(OC)c(OC)c(OC)c1-2 | 0.000104
COc1ccc(-c2ccc(OC)c(=O)cc2)c(OC)c1OC | 7.5e-06
COc1cc(C2CCCc3cc4c(cc32)OCO4)cc(OC)c1OC (stereo unspecified) | 2.4e-06
COc1ccc(CCCCc2cc(OC)c(OC)c(OC)c2)cc1O | 5.8e-06
COc1cc2c(cc1O)CCCCc1cc(OC)c(OC)c(OC)c1-2 | > 0.000125
COc1cc2c(cc1O)CCCc1cc(OC)c(OC)c(OC)c1-2 | 5.3e-06
COc1ccc(CCCc2cc(OC)c(OC)c(OC)c2)cc1O | 2.4e-06
COc1ccc(CCc2cc(OC)c(OC)c(OC)c2)cc1O | 1.4e-06

More lines, now with the values ahead:

IC50 [M] | SMILES
> 0.0002 | COc1cc2c(c(OC)c1OC)C(c1ccc3c(c1)OCO3)CC2 (stereo unspecified)
> 0.0002 | COc1cc2c(c(OC)c1OC)C(c1ccc3c(c1)OCO3)CCC2 (stereo unspecified)
0.000098 | COc1cc(-c2ccc(OC)c(OC)c2OC)ccc1O
0.000012 | COc1cc(C2CCc3cc4c(cc32)OCO4)cc(OC)c1OC (stereo unspecified)
0.000067 | COc1cc(Cc2ccc3c(c2)OCO3)cc(OC)c1OC
0.00015 | COc1ccc(-c2ccc3c(c2)OCO3)c(OC)c1OC
